Reference: US6737383B1, “Herbicidal oxadiazolidines” (priority 1999, dated 2004)

Tests used:
[1] = system: bedstraw; assay: Test B pre/postemergence bedstraw; format: in vivo, Galium aparine; conditions: Preemergence, Rate 250 g/ha; scale 0 to 10, 0 is no effect, 10 is complete control
How it was run: (§1)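 Test chemicals in a non-phytotoxic solvent mixture with surfactant were sprayed preemergence onto planted seeds and postemergence onto plants 2 to 18 cm tall (1- to 4-leaf stage). After twelve to sixteen days in a greenhouse, injury was visually rated against untreated controls from 0 (no effect) to 10 (complete control).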

[2] = system: surinam grass; assay: Test B pre/postemergence surinam grass; format: in vivo, Brachiaria decumbens
How it was run: as §1

[3] = system: cocklebur; assay: Test B pre/postemergence cocklebur; format: in vivo, Xanthium strumarium
How it was run: as §1

[4] = system: corn; assay: Test B pre/postemergence corn; format: in vivo, Zea mays
How it was run: as §1

[5] = system: giant foxtail; assay: Test B pre/postemergence giant foxtail; format: in vivo, Setaria faberii
How it was run: as §1

[6] = system: pigweed; assay: Test B pre/postemergence pigweed; format: in vivo, Amaranthus retroflexus; conditions: for Plant response rating, Redroot pigweed: scale of 0 to 10 where 0 is no effect and 10 is complete control
How it was run: as §1

[7] = system: rape; assay: Test B pre/postemergence rape; format: in vivo, Brassica napus; conditions: for Plant response rating, Rape: scale of 0 to 10 where 0 is no effect and 10 is complete control
How it was run: as §1

[8] = system: soybean; assay: Test B pre/postemergence soybean; format: in vivo, Glycine max; conditions: for Plant response rating, Soybean: scale of 0 to 10 where 0 is no effect and 10 is complete control
How it was run: as §1

[9] = system: sugar beet; assay: Test B pre/postemergence sugar beet; format: in vivo, Beta vulgaris; conditions: for Plant response rating, Sugarbeets: scale of 0 to 10 where 0 is no effect and 10 is complete control
How it was run: as §1

[10] = system: velvetleaf; assay: Test B pre/postemergence velvetleaf; format: in vivo, Abutilon theophrasti; conditions: for Plant response rating, Velvetleaf: scale of 0 to 10 where 0 is no effect and 10 is complete control
How it was run: as §1

[11] = system: wheat; assay: Test B pre/postemergence wheat; format: in vivo, Triticum aestivum; conditions: for Plant response rating, Wheat: scale of 0 to 10 where 0 is no effect and 10 is complete control
How it was run: as §1

[12] = system: wild oat; assay: Test B pre/postemergence wild oat; format: in vivo, Avena fatua; conditions: for Plant response rating, Wild oats: scale of 0 to 10 where 0 is no effect and 10 is complete control
How it was run: as §1

[13] = system: purple nutsedge; assay: Test B pre/postemergence purple nutsedge; format: in vivo, Cyperus rotundus; conditions: for Plant response rating, Nutsedge: scale of 0 to 10 where 0 is no effect and 10 is complete control
How it was run: as §1

[14] = system: rice; assay: Test B flood test rice; format: in vivo, Oryza sativa
How it was run: (§2)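 Plants were grown to the 2-leaf stage before treatment with test chemical, then held in a greenhouse for twelve to sixteen days. Injury was visually rated against untreated controls on a 0–10 scale, where 0 is no effect and 10 is complete control.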

[15] = system: smallflower flatsedge; assay: Test B flood test smallflower flatsedge; format: in vivo, Cyperus difformis
How it was run: as §2

[16] = system: duck salad; assay: Test B flood test duck salad; format: in vivo, Heteranthera limosa
How it was run: as §2

[17] = Postemergence, Rate 500 g/ha, scale of 0 to 10 where 0 is no effect and 10 is complete control
[18] = Preemergence, Rate 62 g/ha, scale of 0 to 10 where 0 is no effect and 10 is complete control
[19] = Preemergence, Rate 125 g/ha, scale of 0 to 10 where 0 is no effect and 10 is complete control
[20] = Preemergence, Rate 250 g/ha, scale 0 to 10, 0 is no effect, 10 is complete control
[21] = Preemergence, Rate 500 g/ha, scale 0 to 10, 0 is no effect, 10 is complete control
[22] = Rate 62 g/ha, Postemergence, scale 0 to 10 (0 no effect, 10 complete control)
[23] = Rate 125 g/ha, Postemergence, scale 0 to 10, 0 is no effect, 10 is complete control
[24] = Postemergence, Rate 250 g/ha, scale 0 to 10
[25] = Rate 62 g/ha, flood test species, Pre-emergence, visual evaluation after twelve to sixteen days
[26] = Rate 125 g/ha, under heading Pre-emergence, flood test species, visual evaluation after twelve to sixteen days
[27] = Rate 250 g/ha, Pre-emergence (flood test species), scale 0 to 10, 0 is no effect, 10 is complete control
[28] = Rate 500 g/ha, Pre-emergence, flood test species, scale 0 to 10 (0 no effect, 10 complete control)

In the case of CC(C)N(C(=O)n1oc(=O)n(CCC[Si](C)(C)C)c1=O)c1ccc(F)cc1 [Compound 461], the “Bedstraw plant response rating” value [1] is reported as 0, the “B. signalgrass plant response rating” value ([2]; Postemergence, Rate 250 g/ha, scale 0 to 10, 0 no effect, 10 complete control) is reported as 0 and the “B. signalgrass plant response rating” value [2, 17] is reported as 0. The “Plant response rating, B. signalgrass” value [2, 18] was 0, the “Plant response rating, B. signalgrass” value [2, 19] was 0 and the “B. signalgrass plant response rating” value [2, 20] was 0. The “B. signalgrass plant response rating” value [2, 21] was 0, the “B. signalgrass plant response rating” value [2, 22] was 0 and the “B. signalgrass plant response rating” value [2, 23] was 0. The “Cocklebur plant response rating” value [3, 24] was 0, the “Cocklebur plant response rating” value [3, 17] was 3 and the “Plant response rating, Cocklebur” value [3, 18] was 0. For the same compound, the “Plant response rating, Cocklebur” value [3, 19] was 0, the “Cocklebur plant response rating” value [3, 20] was 0 and the “Cocklebur plant response rating” value [3, 21] was 0. The “Cocklebur plant response rating” value [3, 22] was 0, the “Cocklebur plant response rating” value [3, 23] was 0 and the “Corn plant response rating” value [4, 24] was 0. For the same compound, the “Corn plant response rating” value [4, 17] was 0, the “Plant response rating, Corn” value [4, 18] was 0 and the “Plant response rating, Corn” value [4, 19] was 0. For the same compound, the “Corn plant response rating” value [4, 20] was 0, the “Corn plant response rating” value [4, 21] was 0 and the “Corn plant response rating” value [4, 22] was 0. The “Corn plant response rating” value [4, 23] was 0, the “Giant foxtail plant response rating” value [5, 24] was 0 and the “Giant foxtail plant response rating” value [5, 17] was 0. The “Plant response rating, Giant foxtail” value [5, 18] was 0, the “Plant response rating, Giant foxtail” value [5, 19] was 0 and the “Giant foxtail plant response rating” value [5, 20] was 0. For the same compound, the “Giant foxtail plant response rating” value [5, 21] was 3, the “Giant foxtail plant response rating” value [5, 22] was 0 and the “Giant foxtail plant response rating” value [5, 23] was 0. The “Redroot pigweed plant response rating” value [6, 24] was 0, the “Plant response rating, Redroot pigweed” value ([6]; Preemergence, Rate 62 g/ha) was 0 and the “Plant response rating, Redroot pigweed” value ([6]; Preemergence, Rate 125 g/ha) was 0. The “Redroot pigweed plant response rating” value [6, 20] was 0, the “Redroot pigweed plant response rating” value [6, 21] was 0 and the “Redroot pigweed plant response rating” value [6, 22] was 0. For the same compound, the “Redroot pigweed plant response rating” value [6, 23] was 0, the “Rape plant response rating” value [7, 24] was 0 and the “Plant response rating, Rape” value ([7]; Preemergence, Rate 62 g/ha) was 0. For the same compound, the “Plant response rating, Rape” value ([7]; Preemergence, Rate 125 g/ha) was 0, the “Rape plant response rating” value [7, 20] was 0 and the “Rape plant response rating” value [7, 21] was 0. The “Rape plant response rating” value [7, 22] was 0, the “Rape plant response rating” value [7, 23] was 0 and the “Soybean plant response rating” value [8, 24] was 3. The “Plant response rating, Soybean” value ([8]; Preemergence, Rate 62 g/ha) was 0, the “Plant response rating, Soybean” value ([8]; Preemergence, Rate 125 g/ha) was 0 and the “Soybean plant response rating” value [8, 20] was 0. For the same compound, the “Soybean plant response rating” value [8, 21] was 0, the “Soybean plant response rating” value [8, 22] was 2 and the “Soybean plant response rating” value [8, 23] was 3. For the same compound, the “Sugarbeets plant response rating” value [9, 24] was 0, the “Plant response rating, Sugarbeets” value ([9]; Preemergence, Rate 62 g/ha) was 0 and the “Plant response rating, Sugarbeets” value ([9]; Preemergence, Rate 125 g/ha) was 0. For the same compound, the “Sugarbeets plant response rating” value [9, 20] was 0, the “Sugarbeets plant response rating” value [9, 21] was 0 and the “Sugarbeets plant response rating” value [9, 22] was 0. For the same compound, the “Sugarbeets plant response rating” value [9, 23] was 0, the “Velvetleaf plant response rating” value [10, 24] was 0 and the “Plant response rating, Velvetleaf” value ([10]; Preemergence, Rate 62 g/ha) was 0. The “Plant response rating, Velvetleaf” value ([10]; Preemergence, Rate 125 g/ha) was 0, the “Velvetleaf plant response rating” value [10, 20] was 0 and the “Velvetleaf plant response rating” value [10, 21] was 0. For the same compound, the “Velvetleaf plant response rating” value [10, 22] was 0, the “Velvetleaf plant response rating” value [10, 23] was 0 and the “Wheat plant response rating” value [11, 24] was 0. The “Plant response rating, Wheat” value ([11]; Preemergence, Rate 62 g/ha) was 0, the “Plant response rating, Wheat” value ([11]; Preemergence, Rate 125 g/ha) was 0 and the “Wheat plant response rating” value [11, 20] was 0. The “Wheat plant response rating” value [11, 21] was 0, the “Wheat plant response rating” value [11, 22] was 0 and the “Wheat plant response rating” value [11, 23] was 0. For the same compound, the “Wild oats plant response rating” value [12, 24] was 0, the “Plant response rating, Wild oats” value ([12]; Preemergence, Rate 62 g/ha) was 0 and the “Plant response rating, Wild oats” value ([12]; Preemergence, Rate 125 g/ha) was 0. For the same compound, the “Wild oats plant response rating” value [12, 20] was 0, the “Wild oats plant response rating” value [12, 21] was 0 and the “Wild oats plant response rating” value [12, 22] was 0. For the same compound, the “Wild oats plant response rating” value [12, 23] was 0, the “Nutsedge plant response rating” value [13, 24] was 0 and the “Plant response rating, Nutsedge” value ([13]; Preemergence, Rate 62 g/ha) was 0. For the same compound, the “Plant response rating, Nutsedge” value ([13]; Preemergence, Rate 125 g/ha) was 0, the “Nutsedge plant response rating” value [13, 20] was 0 and the “Nutsedge plant response rating” value [13, 21] was 0. The “Nutsedge plant response rating” value [13, 22] was 0, the “Nutsedge plant response rating” value [13, 23] was 0 and the “Plant response rating, Rice (0 to 10 scale, 0 is no effect, 10 is complete control)” value [14, 25] was 0. For the same compound, the “Rice plant response rating (0 to 10 scale, 0 is no effect, 10 is complete control)” value [14, 26] was 0, the “Rice plant response rating” value [14, 27] was 0 and the “Rice plant response rating” value [14, 28] was 0. The “Plant response rating, S. Flatsedge (0 to 10 scale, 0 is no effect, 10 is complete control)” value [15, 25] was 0, the “S. Flatsedge plant response rating (0 to 10 scale, 0 is no effect, 10 is complete control)” value [15, 26] was 0 and the “S. Flatsedge plant response rating” value [15, 27] was 0. For the same compound, the “S. Flatsedge plant response rating” value [15, 28] was 0, the “Plant response rating, Ducksalad (0 to 10 scale, 0 is no effect, 10 is complete control)” value [16, 25] was 0 and the “Ducksalad plant response rating (0 to 10 scale, 0 is no effect, 10 is complete control)” value [16, 26] was 0. The “Ducksalad plant response rating” value [16, 27] was 0 and the “Ducksalad plant response rating” value [16, 28] was 0.
